Measurements as given in patent US20240238212A1, “LIPID COMPOUNDS AND LIPID NANOPARTICLE COMPOSITIONS” (SUZHOU ABOGEN BIOSCIENCES CO., LTD., priority 2022, published 2024).

What was measured:
[1] = test system: luciferase mRNA expression; experiment: Animal Study 2: luciferase mRNA LNPs i.v. in mice, optical imaging; assay type: in vivo; settings: female Balb/c mice, 0.25 mg/kg tail vein injection, e.g. 6 hours; relative to MC3 LNP
Experimental: Lipid nanoparticles comprising compounds in the following table encapsulating mRNA encoding luciferase were systemically administered to 6-8 week old female Balb/c mice (Charles River Lab, ZheJiang) at 0.25 mg/kg dose by tail vein injection and mice blood were sampled at specific time points (e.g., 6 hours) post administration. Optical imaging was performed using the IVIS Spectrum CT device (PerkinElmer Inc., Paris, France). The luminescence level was evaluated by an ROI applied to the injection site zone (Living Image software, PerkinElmer Inc., Paris, France). In addition to the aforementioned tested groups, lipid nanoparticles comprising dilinoleylmethyl-4-dimethylaminobutyrate (other names: DLin-MC3-DMA or MC3) encapsulating luciferase mRNA were similarly administered at the same dose to age and gender comparative groups of mice as a positive control.
Characteristics of tested lipid nanoparticles, including luciferase expression levels over MC3 measured from the tested group are listed in the table below.

[2] = Lipid nanoparticle size and polydispersity by dynamic light scattering; assay type: physicochemical; settings: LNP comprising the compound
Experimental: (§1) Briefly, a cationic lipid provided herein, DSPC, cholesterol, and PEG-lipid were solubilized in ethanol at a molar ratio of 50:10:38.5:1.5, and mRNA were diluted in 10 to 50 mM citrate buffer, pH=4. The LNPs were prepared at a total lipid to mRNA weight ratio of approximately 10:1 to 30:1 by mixing the ethanolic lipid solution with the aqueous mRNA solution at a volume ratio of 1:3 using a microfluidic apparatus, total flow rate ranging from 9-30 mL/min. Ethanol were thereby removed and replaced by DPBS using dialysis. Finally, the lipid nanoparticles were filtered through a 0.2 μm sterile filter.
(§2) Lipid nanoparticle size were determined by dynamic light scattering using a Malvern Zetasizer Nano ZS (Malvern UK) using a 173° backscatter detection mode. The encapsulation efficiency of lipid nanoparticles were determined using a Quant-it Ribogreen RNA quantification assay kit (Thermo Fisher Scientific, UK) according to the manufacturer's instructions.

[3] = Apparent pKa of LNP formulations (TNS fluorescence assay); assay type: physicochemical; settings: LNP formulation
Experimental: As reported in literature, the apparent pKa of LNP formulations correlates with the delivery efficiency of LNPs for nucleic acids in vivo. The apparent pKa of each formulation was determined using an assay based on fluorescence of 2-(p-toluidino)-6-napthalene sulfonic acid (TNS). LNP formulations comprising of cationic lipid/DSPC/cholesterol/DMG-PEG (50/10/38.5/1.5 mol %) in PBS were prepared as described above. TNS was prepared as a 300 μM stock solution in distilled water. LNP formulations were diluted to 0.1 mg/mL total lipid in 3 mL of buffered solutions containing 50 mM sodium citrate, 50 mM sodium phosphate, 50 mM sodium borate, and 30 mM sodium chloride where the pH ranged from 3 to 9. An aliquot of the TNS solution was added to give a final concentration of […] and following vortex mixing fluorescence intensity was measured at room temperature in a Molecular Devices Spectramax iD3 spectrometer using excitation and mission wavelengths of 325 nm and 435 nm. A sigmoidal best fit analysis was applied to the fluorescence data and the pKa value was measured as the pH giving rise to half-maximal fluorescent intensity.

[4] = Encapsulation efficiency of lipid nanoparticles (Quant-it Ribogreen RNA assay); assay type: physicochemical; settings: LNP comprising the compound
Experimental: as §1, §2

[5] = test system: human erythropoietin (hEPO) mRNA expression; experiment: Animal Study 1: hEPO mRNA LNPs i.v. in mice, serum EPO by ELISA; assay type: in vivo; settings: female ICR mice, 0.5 mg/kg tail vein injection, blood e.g. 6 hours post administration; relative to MC3 LNP
Experimental: Lipid nanoparticles comprising compounds in the following table encapsulating human erythropoietin (hEPO) mRNA were systemically administered to 6-8 week old female ICR mice (Xipuer-Bikai, Shanghai) at 0.5 mg/kg dose by tail vein injection and mice blood were sampled at specific time points (e.g., 6 hours) post administration. In addition to the aforementioned tested groups, lipid nanoparticles comprising dilinoleylmethyl-4-dimethylaminobutyrate (DLin-MC3-DMA, usually abbreviated to MC3) encapsulating hEPO mRNA were similarly administered at the same dose to age and gender comparative groups of mice as a positive control.
Mice were euthanized by CO2 overdoses after the last sampling time point. Serum were separated from total blood by centrifugation at 5000 g for 10 minutes at 4 T, snap-frozen and stored at −80 T for analysis. ELISA assay were carried out using a commercial kit (DEP00, R&D systems) according to manufacturer's instructions.
Characteristics of tested lipid nanoparticles, including EPO expression levels over MC3 measured from the tested group are listed in the table below.

[6] = Lipid clearance study: lipid remaining in liver tissue by LC-MS/MS; settings: mouse liver; for % Dose Remaining in Liver Tissue, 6 h: 6 h after 0.5 mg/kg i.v. bolus dose mRNA; for % Dose Remaining in Liver Tissue, 24 h: 24 h after 0.5 mg/kg i.v. bolus dose mRNA; for % Dose Remaining in Liver Tissue, 48 h: 48 h after 0.5 mg/kg i.v. bolus dose mRNA
Experimental: LNPs were injected into mice via the tail vein (ICR female, IV, 0.5 mg mRNA/kg), then mice were anesthetized under carbon dioxide at different time (e.g., 6 h, 24 h, and 48 h) after administration and sacrificed via cardiac puncture. Liver tissue were collected immediately, and then washed by ice-cold saline. Liver samples were weighed and homogenized in ice water bath by adding pre-chilled 20% methanol-water (v/v) at 2˜8° C. with the ratio of 1:5 (w/v). The homogenized tissue samples were stored in −90˜−60° C. freezer prior to analysis.
All liver tissue homogenate samples were allowed to thaw at room temperature. An aliquot of 50 μL of sample was added with 50 μL MgCl2 (2M), then added with ACN which contains of Verapamil, 5 ng mL-1 and Glibenclamide, 50 ng mL-1 and Diclofenac, 200 ng mL^−1 and Tolbutamide, 200 ng mL^−1 for protein precipitation, then centrifuged at 13000 rpm for 8 min. Then 100 μL of supernatant was added with 100 μL water, then vortexed well. An aliquot of 5 μL of the mixture was injected into the LC-MS/MS system.

[7] = hEPO mRNA, cationic lipid/DSPC/cholesterol/PEG-lipid 50:10:38.5:1.5

Row | Compound | luciferase expression over MC3 [1] | Polydispersity ([2]; luciferase mRNA) | Size (nm) ([2]; luciferase mRNA) | Apparent pKa ([3]; TNS assay (Table 3)) | Encapsulation efficiency ([4]; luciferase mRNA) [%] | Polydispersity ([2]; hEPO mRNA) | Size (nm) [2, 7] [nm] | Encapsulation efficiency ([4]; hEPO mRNA) [%] | EPO expression over MC3 [5] | % Dose Remaining in Liver Tissue, 6 h [6] [%] | % Dose Remaining in Liver Tissue, 24 h [6] [%] | % Dose Remaining in Liver Tissue, 48 h [6] [%] | Apparent pKa ([3]; TNS assay (Table 2))
1 | CCCCCCCCCCCCCCCCCC(=O)OCCCCCCN(CCCCC(COC(=O)CCCCCCC)COC(=O)CCCCCCC)C1CC(O)C1 (centres unmarked) [Compound 57] | A (≥2) | 0.026 | 86.07 | 7.046 | 90.36 | – | – | – | – | – | – | – | –
2 | CCCCCCCC(=O)OCC(CCCCN(CCCCC(COC(=O)CCCCCCC)COC(=O)CCCCCCC)CCOCCO)COC(=O)CCCCCCC [Compound 5] | – | – | – | – | – | 0.073 | 82.87 | 89.49 | A (≥2) | 2.646 | 0.098 | 0 | –
3 | CCCCC/C=C\C/C=C\CCCCCCCC(=O)OCCCCCCN(CCCCC(COC(=O)CCCCCCC)COC(=O)CCCCCCC)C1CC(O)C1 (centres unmarked) [Compound 58] | A (≥2) | 0.053 | 81.27 | 6.948 | 89.76 | – | – | – | – | – | – | – | –
4 | CCCCCCCC(=O)OCC(COC(=O)CCCCCCC)OCCCN(CCCOC(COC(=O)CCCCCCC)COC(=O)CCCCCCC)CCN(CCO)C1CCC1 [Compound 9] | – | – | – | – | – | 0.046 | 111.6 | 87.29 | A (≥2) | 1.071 | 0.089 | 0 | 6.558
5 | CCCCCCCCCCCOC(=O)CCCCCN(CCO)CCCOC(COC(=O)CCCCCCC)COC(=O)CCCCCCC [Compound 8] | – | – | – | – | – | 0.051 | 95.24 | 84.70 | C (≥0.1 and <1) | 1.274 | 0.068 | 0 | 6.992
6 | CCCCCCCCC(CCCCCC)COC(=O)CCCCCN(CCO)CCCCC(COC(=O)CCCCCCC)COC(=O)CCCCCCC (centres unmarked) [Compound 10] | – | – | – | – | – | 0.084 | 61.45 | 91.36 | B (≥1 and <2) | 0.981 | 0.19 | 0.038 | 6.624
7 | CCCCCCCC(=O)OCC(COC(=O)CCCCCCC)COC(=O)CCCCCN(CCCCCCCO)CCCCCC(=O)OCC(COC(=O)CCCCCCC)COC(=O)CCCCCCC [Compound 70] | – | – | – | – | – | 0.037 | 67.7 | 95.70 | B (≥1 and <2) | – | – | – | 6.171
8 | CCCCCCCC(=O)OCC(CCCCN(CCCCC(COC(=O)CCCCCCC)COC(=O)CCCCCCC)CCCNc1c(N(CC)CC)c(=O)c1=O)COC(=O)CCCCCCC [Compound 31] | – | – | – | – | – | 0.073 | 72.36 | 88.17 | A (≥2) | – | – | – | 6.221
9 | CCCCCCCC(=O)OCC(CCCCN(CCCCC(COC(=O)CCCCCCC)COC(=O)CCCCCCC)CCCNc1c(N(CC)CCO)c(=O)c1=O)COC(=O)CCCCCCC [Compound 60] | C (≥0.1 and <1) | 0.011 | 73.37 | 6.809 | 93.20 | – | – | – | – | – | – | – | –
10 | CCCCCCCCC(CCCCCC)CNC(=O)CCCCCN(CCO)CCCCC(COC(=O)CCCCCCC)COC(=O)CCCCCCC (centres unmarked) [Compound 11] | – | – | – | – | – | 0.082 | 59.17 | 85.63 | D (<0.1) | 3.1 | 0.537 | 0.139 | –
11 | CCCCCCCCC(=O)OCC(COC(=O)CCCCCCCC)COC(=O)CCCCCN(CCO)CCCCCC(=O)OCC(COC(=O)CCCCCCCC)COC(=O)CCCCCCCC [Compound 75] | – | – | – | – | – | 0.074 | 66.83 | 93.47 | A (≥2) | – | – | – | 6.703
12 | CCCCCCCCOC(CCCCCN(CCO)CCCCCC(OCCCCCCCC)OCCCCCCCC)OCCCCCCCC [Compound 15] | – | – | – | – | – | 0.096 | 77.33 | 94.67 | C (≥0.1 and <1) | – | – | – | 6.219
13 | CCCCCCCC(=O)OCC(CCCCN(CCCCC(COC(=O)CCCCCCC)COC(=O)CCCCCCC)C1CCC(O)CC1)COC(=O)CCCCCCC (centres unmarked) [Compound 16] | – | – | – | – | – | 0.021 | 68.14 | 90.78 | A (≥2) | – | – | – | 6.509
14 | CCCCCCCC(=O)OCC(CCCCN(CCCCC(COC(=O)CCCCCCC)COC(=O)CCCCCCC)CCCNc1c(N(C)C)c(=O)c1=O)COC(=O)CCCCCCC [Compound 27] | – | – | – | – | – | 0.073 | 64.02 | 91.59 | A (≥2) | – | – | – | 6.404
15 | CCCCCCCCC(CCCCCC)COC(=O)CCCCCN(CCO)CCCCCC(=O)OCC(C)(COC(=O)CCCCCCC)COC(=O)CCCCCCC (centres unmarked) [Compound 83] | – | – | – | – | – | 0.051 | 67.54 | 94.79 | A (≥2) | – | – | – | 6.547
16 | CCCCCCCC/C=C\CCCCCCCC(=O)OCCCCCCN(CCCCC(COC(=O)CCCCCCC)COC(=O)CCCCCCC)C1CC(O)C1 (centres unmarked) [Compound 39] | – | – | – | – | – | 0.002 | 84.01 | 89.27 | C (≥0.1 and <1) | – | – | – | 6.801
17 | CCCCCCCC(=O)OCC(COC(=O)CCCCCCC)OCCCN(CCCCCO)CCCOC(COC(=O)CCCCCCC)COC(=O)CCCCCCC [Compound 25] | – | – | – | – | – | 0.085 | 98.05 | 82.87 | B (≥1 and <2) | – | – | – | 6.418
